The test system of one assay is aldosterone infused rats. Description: Assay B, aldosterone infusion model: systolic blood pressure by radio-telemetry. The format is in vivo, Male Sprague Dawley rats. The following applies: 1% NaCl, uni-nephrectomized rats, eplerenone 100 mpk p.o., 4 weeks. The protocol: Human cardiovascular disorders are complex conditions, often initiated by vascular hypertension or a myocardial infarction (MI). In order to determine the probable effectiveness of a therapy for cardiovascular disorders, it is important to determine the potency of components in several assays. Accordingly, in Assay “A”, the efficacy of the aldosterone antagonist epeplerenone (epoxymexrenone) was determined in a hypertensive rat model with vascular inflammation, using angiotensin II infusion. In Assay “B” a study is described evaluating the efficacy of the aldosterone antagonist epeplerenone (epoxymexrenone) in a rat model using aldosterone infusion to produce hypertension with vascular inflammation. In Assay “C” a further study is described evaluating the efficacy of the aldosterone antagonist epeplerenone (epoxymexrenone) in a rat model using aldosterone infusion to produce hypertension with vascular inflammation. Assay B: In Vivo Aldosterone Infusion Model Male Sprague Dawley rats (n=39; BW=250 g) […] Uni-nephrectomy performed during implantation of mini-pumps 2. Aldosterone ([…], sc via alzet minipump) 2. […] 1. […] SBP measured by radio-telemetry probes inserted in the abdominal aorta

The test system of another assay is cyclooxgenase-2. Description: Assay A: immunostaining of hearts with cyclooxygenase-2 specific antibody. The format is in vivo, Male Wistar rats. The following applies: angiotensin II infused rats, eplerenone 100 mpk, aldosterone replacement in adrenalectomized rats. An excerpt: Cycloxygenase-2 staining was also observed in the vascular smooth muscle cells of the media of coronary arteries, even when there was no evidence of morphologic alterations or inflammatory aggregates in the perivascular space (FIG. 26).

In assay [1] the test system is coronary arteries of angiotensin II/salt-treated animals. Description: Assay A: heart histology (hematoxylin&eosin), vascular inflammatory lesions and myocardial injury. The conditions noted are these: eplerenone 100 mpk; for Vascular inflammation and myocardial injury in the heart: angiotensin II infused rats, aldosterone replacement in adrenalectomized rats. Type of assay: in vivo, Male Wistar rats. The text has this:
Sacrifice by exanguination after 4 weeks. Blood was be collected in dry tubes for determination of serum electrolytes and in EDTA-containing tubes for measurement of aldosterone and corticosterone levels Hearts were stained with hematoxylin&eosin and have been analyzed for determination of morphologic abnormalities (i.e. necrosis, vascular injury).

In a further assay the test system is osteopontin. Put plainly: Assay B: osteopontin immunohistochemistry in the heart. The conditions noted are these: aldosterone-infused rats, eplerenone 100 mpk, increased dietary potassium group. Type of assay: in vivo, Male Sprague Dawley rats. The protocol:
Assay B: In Vivo Aldosterone Infusion Model Male Sprague Dawley rats (n=39; BW=250 g) 2. Aldosterone (0.75 mg/hr, sc via alzet minipump) 2. […] Determination of osteopontin and COX-2 was performed by quantitative RT-PCR (Taqman). Osteopontin was also identified in the heart by immunohistochemistry.

The test system of assay [2] is aldosterone-infused, saline-drinking, uni-nephrectomized rats. Put plainly: Assay B: heart histology (hematoxylin&eosin), vascular inflammatory lesions and myocardial injury. Type of assay: in vivo, Male Sprague Dawley rats. The conditions noted are these: eplerenone 100 mpk p.o., 0.6% KCl group, 4 weeks. The protocol: Assay B: In Vivo Aldosterone Infusion Model Male Sprague Dawley rats (n=39; BW=250 g) […] Uni-nephrectomy performed during implantation of mini-pumps 2. Aldosterone ([…], sc via alzet minipump) 2. […] 1. […] Sacrifice after 4 weeks. Hearts were harvested and divided by half through a transverse section at the mid-ventricles: The upper half was stored into formalin. The bottom part was snap-frozen in liquid nitrogen for biochemical analysis. Hearts were stained with hematoxylin&eosin and the collagen specific dye picro-sirius red and were analyzed for determination of interstitial collagen volume fraction and morphologic abnormalities (i.e. necrosis, vascular injury).

The next assay has as its system hydroxyproline. Description: Assay C: myocardial hydroxyproline assay. The format is in vivo, Male Sprague-Dawley rats. The protocol: The procedure of Assay B was expanded upon in a further study. […] Myocardial tissue from animals in each treatment group was examined after 7, 14, or 30 days of treatment. […] Lesions were preceded by the expression and progressive upregulation of proinflammatory molecules. […] Prior to surgery the animals were individually weighed and placed in one of the following groups: […] Potassium chloride supplementation was added to the saline solution in order to prevent the potential hypokalemia associated with aldosterone excess. […] Louis, Mo.) was inserted subcutaneously at the nape of the neck. Aldosterone was administered at a dose of 0.75 µg/hour. […] Animals were sacrificed from each group (n=8-13) after 7, 14, or 30 days of treatment. Following exsanguination, hearts and kidneys were isolated, removed, rinsed in cold phosphate-buffered saline, and blotted dry. […] Myocardial hydroxyproline concentration was measured by a […] assay that quantifies the reaction between oxidized hydroxyproline, and p-dimethylaminobenzaldehyde as described previously (4). […] Dried tissues and a positive collagen control (Bovine Collagen Type I, Sigma, St. […] T. Baker, Phillipsburg, N.J.) for 5 min at 25° C. […] Samples were incubated at 60° C. for 30 min, cooled to room temperature, and absorbance was monitored at 558 nm. Hydroxyproline content was quantitated from a freshly prepared standard curve of trans-4-hydroxy-L-proline (Sigma, St. Louis, Mo.). All samples and standards were performed in duplicate.

Setting [3] is: group mean, data used for Table 15 (14 days of treatment).
[4] abbreviates: group mean, data used for Table 16 (30 days of treatment).
Where [5] appears, read: mean after 7 days of treatment, eplerenone dose 100 mg/kg/day.
[6] abbreviates: mean after 14 days of treatment, eplerenone dose 100 mg/kg/day.
[7] abbreviates: mean after 30 days of treatment, eplerenone dose 100 mg/kg/day.

Several values for one entry are separate records, joined by “and”; a condition that tells them apart may be missing. Equal entries are not always repeated. Entries after “also recorded” stand apart in the source; their conditions may differ.

Regarding `COC(=O)[C@@H]1CC2=CC(=O)CC[C@]2(C)[C@@]23O[C@@H]2C[C@@]2(C)[C@@H](CC[C@@]24CCC(=O)O4)[C@H]13` [Eplerenone], the Systolic Blood Pressure entry in the assay on aldosterone infused rats is “significantly reduced, but did not normalize blood pressure”; with aldosterone infused rats (listed as eplerenone), “depression of this elevation”. Besides, the “Cyclooxygenase-2 expression in the heart (immunostaining)” value was “markedly reduced and in most cases completely prevented” in the assay with cyclooxgenase-2; “prevention” in the assay on cyclooxgenase-2 (listed as eplerenone). Moreover, the “Vascular inflammation and myocardial injury in the heart” value in assay [1] is listed as “prevention”. The “Animals with vascular inflammatory changes (lesions) in the coronary arteries” value in assay [1] (of ten animals per group, angiotensin II/salt, 4 weeks) is on record as “one of the ten”. The “Osteopontin expression in the heart (immunostaining)” value is on record as “prevented the expression of osteopontin” with osteopontin and “prevention” with osteopontin (listed as eplerenone). For the same compound, the “Vascular inflammatory changes / myocardial injury” value in assay [2] is “prevention; also recorded: completely prevented”. Moreover, the “Hydroxyproline” value in the assay on hydroxyproline (setting [3]) was 4.46 µg/mg; in the assay on hydroxyproline (setting [4]), 4.10 µg/mg; with hydroxyproline (individual rats, data used for Table 15 (14 days of treatment), incl. rat marked * excluded from statistics, listed as Eplerenone + aldosterone + salt), 2.95 µg/mg and 5.97 µg/mg and 6.52 µg/mg and 5.35 µg/mg and 6.80 µg/mg and 5.32 µg/mg and 2.72 µg/mg and 3.13 µg/mg and 2.41 µg/mg and 2.81 µg/mg and 5.03 µg/mg; in the assay with hydroxyproline (individual rats, data used for Table 16 (30 days of treatment), incl. rat marked * excluded from statistics, listed as Eplerenone + aldosterone + salt) it was 5.18 µg/mg and 6.11 µg/mg and 5.17 µg/mg and 6.40 µg/mg and 2.73 µg/mg and 2.84 µg/mg and 2.97 µg/mg and 2.82 µg/mg and 2.72 µg/mg and 5.75 µg/mg; with hydroxyproline (setting [5]) it was 3.06 µg/mg; with hydroxyproline (setting [6]) it was 4.46 µg/mg. Also, the “Hydroxyproline” value with hydroxyproline (setting [7]) is 4.10 µg/mg.
Consider `C[C@]12CCC(=O)C=C1CC[C@@H]1[C@@H]2[C@@H](O)C[C@]2(C=O)[C@@H](C(=O)CO)CC[C@@H]12` [Aldosterone], for which the Systolic Blood Pressure entry in the assay with aldosterone infused rats was “increased; also recorded: systolic blood pressure elevation”. Further, the “Cyclooxygenase-2 expression in the heart (immunostaining)” value in the assay on cyclooxgenase-2 is recorded as “restored the presence of cycloxygenase-2”. The “Vascular inflammation and myocardial injury in the heart” value in assay [1] is “restored the severe coronary and myocardial inflammation and injury”. The “Osteopontin expression in the heart (immunostaining)” value in the assay on osteopontin is on record as “clearly identified in the media of coronary arteries”. Further, the “Vascular inflammatory changes / myocardial injury” value in assay [2] is recorded as “severe vascular inflammatory lesions”. For the same compound, the “Hydroxyproline” value with hydroxyproline (setting [3]) is 4.04 µg/mg; with hydroxyproline (setting [4]) it was 4.39 µg/mg; in the assay on hydroxyproline (individual rats, data used for Table 15 (14 days of treatment), incl. rat marked * excluded from statistics, listed as Aldosterone + salt), 2.89 µg/mg and 2.91 µg/mg and 6.28 µg/mg and 5.63 µg/mg and 4.83 µg/mg and 5.64 µg/mg and 5.29 µg/mg and 2.76 µg/mg and 2.68 µg/mg and 2.60 µg/mg and 3.00 µg/mg and 3.99 µg/mg and 2.73 µg/mg; in the assay with hydroxyproline (individual rats, data used for Table 16 (30 days of treatment), incl. rat marked * excluded from statistics, listed as Aldosterone + salt), 7.24 µg/mg and 8.01 µg/mg and 3.62 µg/mg and 3.69 µg/mg and 4.00 µg/mg and 3.54 µg/mg and 3.07 µg/mg and 3.25 µg/mg and 3.09 µg/mg; with hydroxyproline (setting [5]), 2.73 µg/mg; in the assay on hydroxyproline (setting [6]), 4.04 µg/mg. The “Hydroxyproline” value in the assay with hydroxyproline (setting [7]) came to 4.39 µg/mg.

The record behind these values is patent publication US6716829B2, “Aldosterone antagonist and cyclooxygenase-2 inhibitor combination therapy to prevent or treat inflammation-related cardiovascular disorders” (Pharmacia Corporation, priority 2000, dated 2004).
